Reference: patent US20080027006A1 (priority 2004, published 2008)
≈ marks a conversion by molar mass, not a printed value.

What was measured:
[1] = type: physicochemical; conditions: pH 7
[2] = physchem; conditions: pH 7
[3] = pH 7

| Structure (SMILES) | [θ]222, Benign [1] | also measured |
| --- | --- | --- |
| CC[C@H](C)[C@H](NC(=O)[C@H](C)NC(=O)[C@H](CCCCN)NC(=O)[C@H](CC(N)=O)NC(=O)[C@H](Cc1ccccc1)NC(=O)[C@H](CCC(N)=O)NC(=O)[C@H](CC(N)=O)NC(=O)[C@H](C)NC(=O)[C@@H](NC(=O)[C@H](CCC(N)=O)NC(=O)[C@H](CCCCN)NC(=O)[C@H](CCC(N)=O)NC(=O)[C@H](CC(N)=O)NC(=O)[C@H](CCC(=O)O)NC(=O)[C@H](Cc1ccc(O)cc1)NC(=O)[C@H](CC(C)C)NC(=O)[C@@H](NC(=O)[C@H](CC(N)=O)NC(=O)[C@H](CCC(N)=O)NC(C)=O)C(C)C)[C@@H](C)CC)C(=O)N[C@@H](CO)C(=O)N[C@@H](CCC(N)=O)C(=O)N[C@H](C(=O)N[C@@H](CCC(N)=O)C(=O)N[C@@H](CCC(=O)O)C(=O)N[C@@H](CO)C(=O)N[C@@H](CC(C)C)C(=O)N[C@H](C(=O)N[C@H](C(=O)N[C@H](C(=O)N[C@@H](CO)C(=O)N[C@H](C(=O)N[C@@H](C)C(=O)N[C@@H](CC(C)C)C(=O)NCC(=O)N[C@@H](CCCCN)C(N)=O)[C@@H](C)O)[C@@H](C)O)[C@@H](C)O)[C@@H](C)O)[C@@H](C)CC [HR-N7] | −2,800 degrees · cm^2 · dmol^−1 | – |
| CC[C@H](C)[C@H](NC(=O)CNC(=O)[C@H](CC(N)=O)NC(=O)[C@H](Cc1ccccc1)NC(C)=O)C(=O)NCC(=O)N[C@H](C(=O)N[C@H](C(=O)N[C@@H](CCC(N)=O)C(=O)N[C@@H](CC(N)=O)C(=O)N[C@H](C(=O)N[C@@H](CC(C)C)C(=O)N[C@@H](Cc1ccc(O)cc1)C(=O)N[C@@H](CCC(=O)O)C(=O)N[C@@H](CC(N)=O)C(=O)N[C@@H](CCC(N)=O)C(=O)N[C@@H](CCCCN)C(=O)N[C@@H](CCC(N)=O)C(=O)N[C@H](C(=O)N[C@@H](C)C(=O)N[C@@H](CC(N)=O)C(=O)N[C@@H](CCC(N)=O)C(=O)N[C@@H](Cc1ccccc1)C(=O)N[C@@H](CC(N)=O)C(=O)N[C@@H](CCCCN)C(=O)N[C@@H](C)C(=O)N[C@H](C(=O)N[C@@H](CO)C(=O)N[C@@H](CCC(N)=O)C(=O)N[C@H](C(=O)N[C@@H](CCC(N)=O)C(=O)N[C@@H](CCC(=O)O)C(=O)N[C@@H](CO)C(=O)N[C@@H](CC(C)C)C(=O)N[C@H](C(=O)N[C@H](C(N)=O)[C@@H](C)O)[C@@H](C)O)[C@@H](C)CC)[C@@H](C)CC)[C@@H](C)CC)C(C)C)[C@@H](C)O)C(C)C [HR-N6] | −3,300 degrees · cm^2 · dmol^−1 | – |
| CC[C@H](C)[C@H](NC(=O)[C@H](CCC(N)=O)NC(=O)[C@H](CO)NC(=O)[C@@H](NC(=O)[C@H](C)NC(=O)[C@H](CCCCN)NC(=O)[C@H](CC(N)=O)NC(=O)[C@H](Cc1ccccc1)NC(=O)[C@H](CCC(N)=O)NC(=O)[C@H](CC(N)=O)NC(=O)[C@H](C)NC(=O)[C@@H](NC(=O)[C@H](CCC(N)=O)NC(=O)[C@H](CCCCN)NC(=O)[C@H](CCC(N)=O)NC(=O)[C@H](CC(N)=O)NC(=O)[C@H](CCC(=O)O)NC(=O)[C@H](Cc1ccc(O)cc1)NC(=O)[C@H](CC(C)C)NC(=O)[C@@H](NC(=O)[C@H](CC(N)=O)NC(=O)[C@H](CCC(N)=O)NC(=O)[C@@H](NC(=O)[C@@H](NC(=O)CNC(=O)[C@@H](NC(=O)CNC(=O)[C@H](CC(N)=O)NC(=O)[C@H](Cc1ccccc1)NC(=O)[C@H](CCCNC(=N)N)NC(=O)[C@H](Cc1ccc(O)cc1)NC(=O)[C@H](C)NC(=O)[C@H](CCSC)NC(=O)[C@H](CCC(N)=O)NC(=O)[C@H](CCSC)NC(C)=O)[C@@H](C)CC)C(C)C)[C@@H](C)O)C(C)C)[C@@H](C)CC)[C@@H](C)CC)C(N)=O [HR-N5] | −4,300 degrees · cm^2 · dmol^−1 | solubility [2]: 15 µM (≈ 61.5 µg/mL); solubility (in words) [3]: largely insoluble; No. Helical Residues, 50% TFE [1]: 24; [θ]222, 50% TFE [1]: −24,200 degrees · cm^2 · dmol^−1 |
| CC[C@H](C)[C@H](NC(=O)[C@H](C)NC(=O)[C@H](CCCCN)NC(=O)[C@H](CC(N)=O)NC(=O)[C@H](Cc1ccccc1)NC(=O)[C@H](CCC(N)=O)NC(=O)[C@H](CC(N)=O)NC(=O)[C@H](C)NC(=O)[C@@H](NC(=O)[C@H](CCC(N)=O)NC(=O)[C@H](CCCCN)NC(=O)[C@H](CCC(N)=O)NC(C)=O)[C@@H](C)CC)C(=O)N[C@@H](CO)C(=O)N[C@@H](CCC(N)=O)C(=O)N[C@H](C(=O)N[C@@H](CCC(N)=O)C(=O)N[C@@H](CCC(=O)O)C(=O)N[C@@H](CO)C(=O)N[C@@H](CC(C)C)C(=O)N[C@H](C(=O)N[C@H](C(=O)N[C@H](C(=O)N[C@@H](CO)C(=O)N[C@H](C(=O)N[C@@H](C)C(=O)N[C@@H](CC(C)C)C(=O)NCC(=O)N[C@@H](CCCCN)C(=O)N[C@@H](CC(C)C)C(=O)N[C@@H](CCC(N)=O)C(=O)N[C@@H](CC(=O)O)C(=O)N[C@H](C(=O)N[C@H](C(=O)N[C@@H](CC(N)=O)C(=O)N[C@@H](CCC(N)=O)C(N)=O)C(C)C)C(C)C)[C@@H](C)O)[C@@H](C)O)[C@@H](C)O)[C@@H](C)O)[C@@H](C)CC [HR-N8] | −2,500 degrees · cm^2 · dmol^−1 | – |
| CC[C@H](C)[C@H](NC(=O)[C@H](C)NC(=O)CNC(=O)[C@H](Cc1ccccc1)NC(=O)[C@H](CC(N)=O)NC(=O)[C@H](CO)NC(=O)[C@H](CO)NC(=O)[C@H](CC(C)C)NC(=O)[C@H](CCC(N)=O)NC(=O)[C@H](CCCCN)NC(=O)[C@@H](NC(=O)[C@H](CC(C)C)NC(=O)[C@@H](NC(=O)[C@H](CC(N)=O)NC(=O)[C@H](CC(C)C)NC(=O)[C@H](C)NC(=O)[C@H](CCC(N)=O)NC(=O)[C@H](C)NC(=O)[C@H](CC(N)=O)NC(=O)[C@H](CCC(N)=O)NC(=O)[C@H](CC(N)=O)NC(=O)[C@@H](NC(=O)[C@@H](NC(=O)[C@H](CC(=O)O)NC(=O)[C@H](CCC(N)=O)NC(=O)[C@H](CC(C)C)NC(=O)[C@H](CCCCN)NC(=O)CNC(=O)[C@H](CC(C)C)NC(=O)[C@H](C)NC(=O)[C@@H](NC(=O)[C@H](CO)NC(=O)[C@@H](NC(C)=O)[C@@H](C)O)[C@@H](C)O)C(C)C)C(C)C)[C@@H](C)O)C(C)C)C(=O)N[C@@H](CO)C(=O)N[C@@H](CO)C(N)=O [HR-N11] | −3,200 degrees · cm^2 · dmol^−1 | – |
| CC[C@H](C)[C@H](NC(C)=O)C(=O)N[C@@H](CCC(N)=O)C(=O)N[C@@H](CCC(=O)O)C(=O)N[C@@H](CO)C(=O)N[C@@H](CC(C)C)C(=O)N[C@H](C(=O)N[C@H](C(=O)N[C@H](C(=O)N[C@@H](CO)C(=O)N[C@H](C(=O)N[C@@H](C)C(=O)N[C@@H](CC(C)C)C(=O)NCC(=O)N[C@@H](CCCCN)C(=O)N[C@@H](CC(C)C)C(=O)N[C@@H](CCC(N)=O)C(=O)N[C@@H](CC(=O)O)C(=O)N[C@H](C(=O)N[C@H](C(=O)N[C@@H](CC(N)=O)C(=O)N[C@@H](CCC(N)=O)C(=O)N[C@@H](CC(N)=O)C(=O)N[C@@H](C)C(=O)N[C@@H](CCC(N)=O)C(=O)N[C@@H](C)C(=O)N[C@@H](CC(C)C)C(=O)N[C@@H](CC(N)=O)C(=O)N[C@H](C(=O)N[C@@H](CC(C)C)C(=O)N[C@H](C(=O)N[C@@H](CCCCN)C(=O)N[C@@H](CCC(N)=O)C(=O)N[C@@H](CC(C)C)C(=O)N[C@@H](CO)C(=O)N[C@@H](CO)C(N)=O)C(C)C)[C@@H](C)O)C(C)C)C(C)C)[C@@H](C)O)[C@@H](C)O)[C@@H](C)O)[C@@H](C)O [HR-N10] | −3,600 degrees · cm^2 · dmol^−1 | – |
| CC[C@H](C)[C@H](NC(=O)[C@H](C)NC(=O)[C@H](CCCCN)NC(=O)[C@H](CC(N)=O)NC(=O)[C@H](Cc1ccccc1)NC(C)=O)C(=O)N[C@@H](CO)C(=O)N[C@@H](CCC(N)=O)C(=O)N[C@H](C(=O)N[C@@H](CCC(N)=O)C(=O)N[C@@H](CCC(=O)O)C(=O)N[C@@H](CO)C(=O)N[C@@H](CC(C)C)C(=O)N[C@H](C(=O)N[C@H](C(=O)N[C@H](C(=O)N[C@@H](CO)C(=O)N[C@H](C(=O)N[C@@H](C)C(=O)N[C@@H](CC(C)C)C(=O)NCC(=O)N[C@@H](CCCCN)C(=O)N[C@@H](CC(C)C)C(=O)N[C@@H](CCC(N)=O)C(=O)N[C@@H](CC(=O)O)C(=O)N[C@H](C(=O)N[C@H](C(=O)N[C@@H](CC(N)=O)C(=O)N[C@@H](CCC(N)=O)C(=O)N[C@@H](CC(N)=O)C(=O)N[C@@H](C)C(=O)N[C@@H](CCC(N)=O)C(=O)N[C@@H](C)C(=O)N[C@@H](CC(C)C)C(=O)N[C@@H](CC(N)=O)C(=O)N[C@H](C(N)=O)[C@@H](C)O)C(C)C)C(C)C)[C@@H](C)O)[C@@H](C)O)[C@@H](C)O)[C@@H](C)O)[C@@H](C)CC [HR-N9] | −2,800 degrees · cm^2 · dmol^−1 | – |
